T1: fusion protein containing the hormone-dependent activation domain of the human estrogen receptor alpha and the DNA binding domain of the yeast Gal4 protein (Homo sapiens, UniProt P03372)
T1 construct: expressed in transfected cells; host or cells: Saccharomyces cerevisiae YZHB817 (PJ69-4a derivative, pdr5 snq2) carrying expression vector pTK103
T1 sequence (P03372 311-595 limits assumed): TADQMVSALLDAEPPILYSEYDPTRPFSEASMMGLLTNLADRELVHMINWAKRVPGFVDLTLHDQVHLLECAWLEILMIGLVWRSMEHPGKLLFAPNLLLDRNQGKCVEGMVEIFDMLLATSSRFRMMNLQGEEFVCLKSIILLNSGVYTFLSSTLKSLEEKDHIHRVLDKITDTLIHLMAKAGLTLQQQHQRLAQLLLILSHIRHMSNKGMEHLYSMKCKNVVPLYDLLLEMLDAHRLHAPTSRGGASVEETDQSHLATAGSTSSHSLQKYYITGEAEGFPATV

B1: polypeptide of SEQ ID No. 1: monooxygenase converting the keto group in position 7 of zearalenone into an ester group (protein)
chain: MTLEAIPVPEETPAQTVPTAPLSEEEREALKHRYRAERDKRIREDGIKQYRSLEGLLDVDDTKDPYTPVKPREPLNDHVDFLFLGGGFAGLIVCSHLKKTGFNDFRIIESGGDFGGVWYWNRFPGAMCDTAAMVYLPLLEETGTVPSAKYVRGPEILAHAQRIARTFDLYPHALFHTHLESLTWDEEQGVWKVKTRQGDSFTATHVGMGTGPLNKPHLPGIPGIEKFKGKAMHTARWDFATTGGGWNGEVMEGLKDKRVGVIGTGATGIQAIPELGRDSGELFVFQRTPSAVAVRGNHPIDPEWFASLDKGWQTKWNRNFIQLMSSGMAENDYVRDGWTDGVKRITARMFAEAAKAGRDPSTLSFDDFLAAYHLSDDEYMTAVRNRTNEVVNDPKTADGLKAWYRQFCKRPCFHDEFLATFNRPTVHLVDTNGQGVTEVDETGVWANGQHYDLDIIVYATGFEFNSEWTYKSGMEVYGRDGLTLTQAWKDGMKTYHGMHINGFPNLFMLQFQQGSSLASNITSNYVDSGYTIAAILNKKKELGAKTVEVPADVQSKWIEHLLTANKGLIGGPECTPGYYNNEGQEEGLKEKLNGARYPAGSLAFFDYIAEWRTNGKFEGLAFDGKQIAVQ
modifications: Trichosporon mycotoxinivorans
notes: monooxygenase converting the keto group in position 7 of zearalenone into an ester group

Columns and labels:
[1] = tested on: mammals; conditions: cited from earlier work
[2] = extrusion and oxidants, e.g. 16 hours at 80° C. with 10% hydrogen peroxide solution; cited from earlier work
[3] = tested on: pigs; conditions: cited from earlier work
[4] = target: T1, fusion protein containing the hormone-dependent activation domain of the human estrogen receptor alpha and the DNA binding domain of the yeast Gal4 protein; assay type: cell-based; conditions: for Concentration necessary to express 7.5 relative units of beta-galactosidase: GAL7-lacZ reporter, 18 hours at 30° C.
Excerpt: The purified metabolite iZOM as described in Example 2 was used to determine its toxicity, expressed by its estrogenic activity, and compared to that of zearalenone.
For measuring the estrogenic activity, a specially prepared reporter yeast strain, YZHB817 (Bachmann, H.: Phenotypic detection of zearalenone in Saccharomyces cerevisiae. Master thesis BOKU Vienna, 2003) was used. This strain is derived from yeast-two hybrid strain PJ69-4a (MATa trp1-901 leu2-3,112 ura3-52 his3-200 gal4-(deleted) gal80(deleted) LYS2::GAL1-HIS3 GAL2-ADE2 met2::GAL7-lacZ) (James et al. 1996, Genetics; 144(4), 1425-1436). PJ69-4a was further developed by the disruption of the ABC transporters PDR5 and SNQ2. […] This strain was subsequently transformed with an expression vector (pTK103) that triggers the production of a fusion protein containing the hormone-dependent activation domain of the human estrogen receptor alpha and the DNA binding domain of the yeast Gal4 protein, in order to obtain the strain YZHB817.
In the presence of estrogenic substances, the yeast strain YZHB817 induces the expression of the GAL7 lacZ reporter gene, whose product, the enzyme beta-galactosidase, is easy to measure by the hydrolyzation of the chromogenic substrate ONPG (ortho-nitrophenyl-beta-galactoside) at 420 nm (Current Protocols in Molecular Biology, Chapter 13, Yeast (Eds. Lundblad V, Struhl, K.)).
[…] of the estrogenic test solution (ZEN or iZOM) were dissolved in 50% ethanol, mixed with 1.9 ml of the yeast culture of strain […] in SC-TRP medium at a cell density of OD600=0.1, and incubated for 18 hours at 30° C. and 180 rpm. After this, the OD600 of the culture was determined, and the cell pellet (10 min, 13 krpm) of 1 ml was resuspended in […] Z buffer and permeabilized with 25 μl chloroform. […] The supernatant was measured at 420 nm, and the relative units (based on the used cell amount) were calculated as: RU=(OD420×1000)/(OD600×incubation time in min)

[5] = cited from earlier work
[6] = tested on: bovine; conditions: cited from earlier work
[7] = cited from earlier work; remark: listed apart in the source
[8] = tested on: polypeptide of SEQ ID No. 1; assay: Metabolization of ZEN by yeast strain YZGA515 expressing the polypeptide of SEQ ID No. 1 (test setup), HPLC-MS; assay type: cell-based, Saccharomyces cerevisiae; conditions: expressed in yeast strain YZGA515
Excerpt: The yeast strain YZGA515 (Saccharomyces cerevisiae modified by inactivation of the ABC transporter gene PDR5 (Poppenberger et al. 2003, J. Biol. Chem., 278 (48) 47905-14) for the enhanced absorption of zearalenone (ZEN)) was transformed by the plasmid pCS57 using standard techniques. pCS57 is a plasmid derived from the yeast expression plasmid pADH-FW (Mitterbauer et. al 2002, Appl. Environ. Microbiol.; 68 (3), 1336-1346) with LEU2 as selection marker and ADH1 promoter.
In the test setup, the yeast strain YZGA515 was transformed with the pCS57 vector additionally containing the polynucleotide of SEQ ID No. 4 as BamHI-Xhol fragment after the strongly constitutive ADH1 promoter (alcohol dehydrogenase 1). This enabled the formation of the polypeptide of SEQ ID No. 1.
The yeast strain YZGA515 with the empty vector (pADH-FW without the polynucleotide of SEQ ID No.4) was transformed as negative control.
The transgenic yeasts (test setup and negative control) were cultivated in SC-LEU medium (Sherman 1991, Methods Enzymol., 194, 3-21), centrifuged and resuspended in fresh SC-LEU medium at a concentration of 2 mg/l ZEN, wherein a cell density of OD600=4 was adjusted in both cases. […]
In a further test setup, the metabolite iZOM was additionally measured quantitatively. […]

Row | Molecule | ZEN concentration in feeds leading to development disorders [1] | Reduction of ZEN content [2] [%] | ZEN concentration in feeds that may lead to hyper-estrogenicity [3] | Concentration necessary to express 7.5 relative units of beta-galactosidase [4] | oral LD50 [5] | ZEN concentration made responsible for miscarriages [6] [ppm] | Time after oral administration at which ZEN is detectable in blood [7] [min] | Toxicity lower by a factor (than zearalenone) ([4]; toxicity expressed by estrogenic activity) | Conversion of ZEN to iZOM [8]
1 | C[C@H]1CCCC(=O)CCC/C=C/c2cc(O)cc(O)c2C(=O)O1 [ZEN, (2E,11D)-15,17-dihydroxy-11-methyl-12-oxabicyco[12.4.0]octadeca-1(18), 2,14,16-tetraene-7,13-dione] | above 0.5 ppm | 83.9 | above 1.5 ppm | approximately 45 ppb | up to 20,000 mg/kg body weight | 12 | 30 | – | –
2 | CC1CCCC(=O)OCCC/C=C/c2cc(O)cc(O)c2C(=O)O1 (stereo not shown) [iZOM] | – | – | – | about 500 ppb | – | – | – | about 100 | –
3 | B1 | – | – | – | – | – | – | – | – | able to convert ZEN to its metabolite iZOM

Reference: patent publication US11136561B2, “Polypeptide for the enzymatic detoxification of zearalenone, isolated polynucleotide, and associated additive, use and method” (priority 2014, dated 2021)
